From patent US20250228239A1, “MOLECULES HAVING PESTICIDAL UTILITY, AND INTERMEDIATES, COMPOSITIONS, AND PROCESSES, RELATED THERETO” (priority 2024, published 2025) come the findings set out here.

Molecules are shown by their SMILES. Where two headings read alike, the source gives them in different places.

Test [1] concerns Cabbage Looper (Trichoplusia ni, TRIPNI). Nature of the test: Bioassays on Cabbage Looper (CL), 128-well diet tray assay. It is filed as in vivo. The note with it: Trichoplusia ni. An outline of the steps: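 Each of eight wells receives artificial diet treated at 50 μg/cm^2 with the test molecule, then one to five second-instar larvae. Incubation runs five to seven days at 25° C with a 14:10 light-dark cycle under vented covers. Mortality is scored per well as a percentage and averaged.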

For test [2], the system named is Beet Armyworm (Spodoptera exigua, LAPHEG). Nature of the test: Bioassays on Beet Armyworm (BAW), 128-well diet tray assay. The following applies: Spodoptera exigua. It is filed as in vivo. An outline of the steps:
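Second-instar larvae, one to five per well, were placed on artificial diet surface-treated with 50 μg/cm^2 compound in 90:10 acetone-water, eight wells per treatment. Trays were held 5–7 days at 25 °C, 14:10 light-dark. Percent mortality per well was averaged over eight wells.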

Setting [3] is: Cabbage Looper, rating class, read-out: CL.
Setting [4] is: Beet Armyworm, rating class, read-out: BAW.
[5] abbreviates: Table ABC: Biological Results, species CL, read-out: CL.
[6] abbreviates: Table ABC: Biological Results, species BAW, read-out: BAW.

Take `O=C(Nc1ccc(F)c(NC(=O)C(F)(F)C(F)(F)C(F)(F)F)c1F)c1cc(NC(=O)[C@H]2[C@H](c3cc(Cl)c(Cl)c(Cl)c3)C2(Cl)Cl)ccc1Cl` [F1652, 2-Chloro-5-((1R,3R)-2,2-dichloro-3-(3,4,5-trichlorophenyl)cyclopropane-1-carboxamido)-N-(2,4-difluoro-3-(2,2,3,3,4,4,4-heptafluorobutanamido)phenyl)benzamide]: the pest or weed control at 50 µg/cm2 in test [1] (setting [3]) and in test [2] (setting [4]) was 50 to 100% in each case.
Turning to `O=C(Nc1ccc(F)cc1F)c1cc(NC(=O)[C@H]2[C@H](c3cc(Cl)cc(Cl)c3)C2(Cl)Cl)ccc1F` (single isomer, unassigned) [F1375], the pest or weed control at 50 µg/cm2 in test [1] (setting [5]) and in test [2] (setting [6]) was 50 to 100% in each case.
For the compound `CC(=O)Nc1cc(F)ccc1NC(=O)c1cc(NC(=O)[C@H]2[C@H](c3ccc(Cl)c(Cl)c3)C2(Cl)Cl)ccc1Cl` (relative stereo) [F1125, trans-N-(2-Acetamido-4-fluorophenyl)-2-chloro-5-(2,2-dichloro-3-(3,4-dichlorophenyl)cyclopropane-1-carboxamido)benzamide], the pest or weed control at 50 µg/cm2 in test [1] (setting [5]) and in test [2] (setting [6]) was 50 to 100% throughout.
Consider `O=C(Nc1ccc(F)cc1F)c1c(F)ccc(NC(=O)[C@H]2[C@H](c3ccc(F)c(Cl)c3)C2(Cl)Cl)c1F` (relative stereo) [F1086, trans-3-(2,2-Dichloro-3-(3-chloro-4-fluorophenyl)cyclopropane-1-carboxamido)-N-(2,4-difluorophenyl)-2,6-difluorobenzamide], for which the pest or weed control at 50 µg/cm2 in test [1] (setting [5]) and in test [2] (setting [6]) was 50 to 100% in each case.
Consider `O=C(Nc1c(F)ccc(NC(=O)c2cc(NC(=O)[C@H]3[C@H](c4ccc(F)c(C(F)(F)F)c4)C3(Cl)Cl)ccc2Cl)c1F)c1ccns1` [F1817, N-(3-(2-Chloro-5-((1R,3R)-2,2-dichloro-3-(4-fluoro-3-(trifluoromethyl)phenyl)cyclopropane-1-carboxamido)benzamido)-2,6-difluorophenyl)isothiazole-5-carboxamide], for which the pest or weed control at 50 µg/cm2 in test [1] (Cabbage Looper, Table ABC / ABC-DP rating, read-out: CL rating) is 50 to 100%; in test [2] (Beet Armyworm, Table ABC / ABC-DP rating, read-out: BAW rating), 50 to 100%.
In the case of `O=C(Nc1ccc(F)c(NC(=O)C(F)F)c1F)c1cc(NC(=O)[C@H]2[C@H](c3cccc(S(F)(F)(F)(F)F)c3)C2(Cl)Cl)ccc1Cl` (relative stereo) [F1293, trans-2-Chloro-5-(2,2-dichloro-3-(3-(pentafluoro-λ^6-sulfanyl)phenyl)cyclopropane-1-carboxamido)-N-(3-(2,2-difluoroacetamido)-2,4-difluorophenyl)benzamide], the pest or weed control at 50 µg/cm2 in test [1] (setting [5]) and in test [2] (setting [6]) was 50 to 100% in each case.
As to `CCNc1c(F)ccc(NC(=O)c2cc(NC(=O)[C@H]3[C@H](c4ccc(F)c(C(F)(F)F)c4)C3(Cl)Cl)ccc2Cl)c1F` [F1762, 2-Chloro-5-((1R,3R)-2,2-dichloro-3-(4-fluoro-3-(trifluoromethyl)phenyl)cyclopropane-1-carboxamido)-N-(3-(ethylamino)-2,4-difluorophenyl)benzamide], the pest or weed control at 50 µg/cm2 in test [1] (setting [3]) and in test [2] (setting [4]) was 50 to 100% in each case.
As to `O=C(Nc1ccc(F)cc1NC(=O)C(F)F)c1cc(NC(=O)[C@H]2[C@H](c3ccc(Cl)c(Cl)c3)C2(Cl)Cl)ccc1Cl` (relative stereo) [F1123, trans-2-Chloro-5-(2,2-dichloro-3-(3,4-dichlorophenyl)cyclopropane-1-carboxamido)-N-(2-(2,2-difluoroacetamido)-4-fluorophenyl)benzamide], the pest or weed control at 50 µg/cm2 in test [1] (setting [5]) and in test [2] (setting [6]) was 50 to 100% throughout.
Take `O=C(Nc1ccc(F)c(NC(=O)C(F)(F)F)c1F)c1cc(NC(=O)[C@H]2[C@H](c3ccc(Cl)c(Cl)c3)C2(Cl)Cl)cc(F)c1Cl` [F1288, 2-Chloro-5-((1R,3R)-2,2-dichloro-3-(3,4-dichlorophenyl)cyclopropane-1-carboxamido)-N-(2,4-difluoro-3-(2,2,2-trifluoroacetamido)phenyl)-3-fluorobenzamide]: the pest or weed control at 50 µg/cm2 in test [1] (setting [5]) and in test [2] (setting [6]) was 50 to 100% in each case.
